According to patent publication US20250099634A1, “METHOD OF TREATING CANCER” (Novartis AG, priority 2023, published 2025):
Where two headings read alike, the source gives them in different places.

Key:
[1] = tested on: metastatic midgut NET; conditions: 30 mg/month, cited from earlier work
[2] = healthy subjects, 20 mg and 60 mg; cited from earlier work
[3] = All grades, randomized treatment period, Safety Set
[4] = Grade >=3, randomized treatment period, Safety Set
[5] = all grades, randomized treatment period
[6] = most frequent AEs, summary table

C[C@@H](O)[C@@H]1NC(=O)[C@H](CCCCN)NC(=O)[C@@H](Cc2c[nH]c3ccccc23)NC(=O)[C@H](Cc2ccccc2)NC(=O)[C@@H](NC(=O)[C@H](N)Cc2ccccc2)CSSC[C@@H](C(=O)N[C@H](CO)[C@@H](C)O)NC1=O [Octreotide LAR, octreotide]
AEs leading to discontinuation of Any Treatment (Lutathera, Octreotide) [3]: 2 (2.7) n (%)
AEs leading to discontinuation of Octreotide [3]: 2 (2.7) n (%)
AEs leading to dose interruption of Any Treatment (Lutathera, Octreotide) [3]: 11 (15.1) n (%)
AEs leading to dose interruption of Octreotide [3]: 11 (15.1) n (%)
AEs leading to dose reduction of Any Treatment (Lutathera, Octreotide) [3]: 1 (1.4) n (%)
AEs leading to dose reduction of Octreotide [3]: 1 (1.4) n (%)
Adverse event: Abdominal pain [3]: 20 (27.4) n (%)
Adverse event: Alanine aminotransferase increased [3]: 10 (13.7) n (%)
Adverse event: Alopecia [3]: 1 (1.4) n (%)
Adverse event: Anaemia [3]: 5 (6.8) n (%)
Adverse event: Aspartate aminotransferase increased [3]: 8 (11.0) n (%)
Adverse event: Asthenia [3]: 9 (12.3) n (%)
Adverse event: COVID-19 [3]: 10 (13.7) n (%)
Adverse event: Constipation [3]: 6 (8.2) n (%)
Adverse event: Decreased appetite [3]: 7 (9.6) n (%)
Adverse event: Diarrhoea [3]: 25 (34.2) n (%)
Adverse event: Gamma-glutamyltransferase increased [3]: 8 (11.0) n (%)
Adverse event: Headache [3]: 5 (6.8) n (%)
Adverse event: Hyperglycaemia [3]: 11 (15.1) n (%)
Adverse event: Lymphocyte count decreased [3]: 0 n (%)
Adverse event: Oedema peripheral [3]: 6 (8.2) n (%)
Adverse event: Platelet count decreased [3]: 4 (5.5) n (%)
Adverse event: Vomiting [3]: 6 (8.2) n (%)
Adverse event: Weight increased [3]: 5 (6.8) n (%)
Adverse event: White blood cell count decreased [3]: 3 (4.1) n (%)
Adverse events [3]: 69 (94.5) n (%)
Adverse events Related to Any Treatment [3]: 43 (58.9) n (%)
Adverse events Related to Octreotide [3]: 43 (58.9) n (%)
Adverse events: Number of subjects with at least one event [3]: 69 (94.5) n (%)
AEs leading to discontinuation of Any Treatment (Lutathera, Octreotide) [4]: 2 (2.7) n (%)
AEs leading to discontinuation of Octreotide [4]: 2 (2.7) n (%)
AEs leading to dose interruption of Any Treatment (Lutathera, Octreotide) [4]: 5 (6.8) n (%)
AEs leading to dose interruption of Octreotide [4]: 5 (6.8) n (%)
AEs leading to dose reduction of Any Treatment (Lutathera, Octreotide) [4]: 1 (1.4) n (%)
AEs leading to dose reduction of Octreotide [4]: 1 (1.4) n (%)
Adverse event: Abdominal pain [4]: 3 (4.1) n (%)
Adverse event: Alanine aminotransferase increased [4]: 2 (2.7) n (%)
Adverse event: Alopecia [4]: 0 n (%)
Adverse event: Anaemia [4]: 1 (1.4) n (%)
Adverse event: Aspartate aminotransferase increased [4]: 2 (2.7) n (%)
Adverse event: Asthenia [4]: 0 n (%)
Adverse event: COVID-19 [4]: 0 n (%)
Adverse event: Constipation [4]: 0 n (%)
Adverse event: Decreased appetite [4]: 0 n (%)
Adverse event: Diarrhoea [4]: 1 (1.4) n (%)
Adverse event: Gamma-glutamyltransferase increased [4]: 2 (2.7) n (%)
Adverse event: Headache [4]: 0 n (%)
Adverse event: Hyperglycaemia [4]: 2 (2.7) n (%)
Adverse event: Lymphocyte count decreased [4]: 0 n (%)
Adverse event: Oedema peripheral [4]: 1 (1.4) n (%)
Adverse event: Platelet count decreased [4]: 0 n (%)
Adverse event: Vomiting [4]: 1 (1.4) n (%)
Adverse event: Weight increased [4]: 0 n (%)
Adverse event: White blood cell count decreased [4]: 0 n (%)
Adverse events [4]: 20 (27.4) n (%)
Adverse events Related to Any Treatment [4]: 3 (4.1) n (%)
Adverse events Related to Octreotide [4]: 3 (4.1) n (%)
Adverse events: Number of subjects with at least one event [4]: 20 (27.4) n (%)
adverse event by preferred term: abdominal pain [5]: 27.4%
adverse event by preferred term: diarrhoea [5]: 34.2%
Incidence of AEs: Abdominal pain [6]: 20 (27.4) (%)
Incidence of AEs: Diarrhoea [6]: 25 (34.2) (%)
AEs leading to discontinuation of Lutathera and/or Octreotide (randomized treatment period): 2.7%
AEs leading to discontinuation of Octreotide (randomized treatment period): 2.7%
Any AEs (randomized treatment period): 94.5%
Grade 3/4 AE: GGT increased (randomized treatment period): 2.7%
Grade 3/4 AE: Lymphocyte count decreased (randomized treatment period): 0%
Grade 3/4 AE: abdominal pain (randomized treatment period): 4.1%
Grade 3/4 AE: small intestinal obstruction (randomized treatment period): 0%
Grade ≥3 AEs (randomized treatment period): 27.4%
Grade ≥3 AEs, Treatment-related (randomized treatment period): 4.1%
time to tumor progression ([1]; 42 patients): 14.3 months
patients achieving stable disease [1]: 67%
plasma exposure vs dose [2]: dose-proportional
